Data as given in patent US11331354B2, “Fecal virome and therapeutic efficacy of fecal microbiota transplantation” (priority 2018, dated 2022).

How the values were obtained:
[1] = tested on: Clostridium difficile infection; assay: Randomised controlled trial substudy of FMT versus vancomycin in patients with CDI: clinical outcome (symptoms, stool C. difficile toxin); assay type: in vivo, human
Description: The current study was a substudy from a randomised controlled trial (RCT) of FMT versus vancomycin for patients with CDI. Consecutive CDI subjects enrolled into this RCT were invited to participate in a substudy of assessment of fecal microbiota. Patients were included if they had three or more loose or watery stools per day for at least two consecutive days, or eight or more soft or loose stools in 48 hours, and a positive stool test for C. difficile based on a two-step testing algorithm in the hospital, a positive GDH (glutamate dehydrogenase) screening test followed by a positive PCR test of C. difficile. A total of 24 subjects with CDI and 20 healthy household controls were recruited, and stool samples at baseline were obtained for analyses of virome and bacterial microbiome. Among them, 14 CDI subjects consented to have stool samples collected serially after treatment for microbiome analysis. Nine CDI subjects were treated with FMT and five were treated with vancomycin, and they were followed up at baseline and weeks 2, 4, 10 and 16 after treatment (FIG. 6). One patient FMT6 had recurrent CDI. This patient had five previous episodes of CDI prior to FMT. Subjects in the FMT group received 5 days of vancomycin followed by donor-infused stool via nasojejunal route, and those who had standard therapy (STD) received oral vancomycin 500 mg four times per day for 10 days. A computer-generated randomisation schedule was used to assign patients to the treatment sequences. All patients kept a stool diary and were questioned about stool frequency and consistency and medication use.
Treatment response was defined as an absence of diarrhoea or persistent diarrhoea that could be explained by other causes with a negative stool test for C. difficile toxin, while relapse was defined as diarrhoea with a positive stool test for C. difficile toxin. Treatment cure is defined as symptom resolution and a negative Clostridium difficile toxin in stool until the last follow-up (last follow-up was referred to as the last stool collection time point, as shown in FIG. 6). […] CDI recipients FMT8 and FMT9 shared the same donor, and this donor was termed ‘D8’. None of the patients had received antibiotics or proton pump inhibitors after FMT.
1. C. difficile infection was defined as diarrhea (≥3 soft, loose or watery stools per day for at least 2 consecutive days or ≥8 soft or loose stools in 48 hours) and a positive stool test for C. difficile toxin; and
Family members provided donor stool for subjects randomised to FMT arm. Cure after FMT or vancomycin therapy was defined as symptom resolution and negative Clostridium difficile toxin in stool at last follow-up by PCR assay. Relapse was defined as diarrhea with a positive stool test for C. difficile toxin.
In subjects who received FMT, a nasoduodenal tube was inserted with radiology guidance. Donor feces was diluted with 500 ml of sterile saline (0.9%), blended and the supernatant was strained with filter paper and poured in a sterile bottle. Within 6 hours after collection of feces by the donor, the solution was infused through a nasoduodenal tube (2 to 3 minutes per 50 ml). The tube was removed 30 minutes after the infusion, and patients were monitored for 2 hours. In subjects with received FMT, a minimum of 50 g of donor stool was collected on the same day of infusion and used within 6 hours of collection.

[2] = tested on: enteric virome (Caudovirales, Microviridae, Anelloviridae); assay: Ultra-deep metagenomic sequencing of virus-like particle (VLP) preparations from stool: enteric virome abundance, diversity, richness, donor-derived contigs; assay type: in vivo, human
Description: VLPs were enriched from pulverised human stool, using a protocol according to previously described methods.^11 17 VLP DNAs were quantified (NanoDrop), and 1 μg of DNA was randomly fragmented by ultrasonication (Covaris) followed by library construction. The qualified libraries were amplified on cBot to generate the cluster on the flow cell (TruSeq PE Cluster Kit V3-cBot-HS, Illumina). The amplified libraries were sequenced paired end on the HiSeq 2000 System (TruSeq SBS KIT-HS V3, Illumina) (BGI, Shenzhen, China; standard 2×150 bp run), generating 20-60 million raw sequences (5-8 G raw data) per sample (sequence statistics in Table 3). Sequence processing and quality control, de novo contig assembly and taxonomy annotation were performed.
To estimate contig abundance and calculate sequence diversity, all reads were aligned to the resulting contigs using Bowtie2 (V. 2.2.9).^18 The mapped sequence counts, contig lengths and total sequence counts were used to normalise the sequence counts and represent the RPKM (reads per kilobase per million) of each sample to the contigs. These values were used to generate an operational taxonomic unit (OTU) relative abundance table, which was annotated with the taxonomy described above. The virome abundance data were imported into R 3.2.3. Richness, diversity and rarefaction calculation were performed using the estimated richness function of the phyloseq package. Diversity and richness plots were generated in GraphPad Prism (V. 6.0). Spearman correlations and their significance were calculated using the cor and cor.test functions in R, respectively. […] Correlation plots were generated using the corrplot R package. Heat maps were generated using the pheatmap R package. LEfSe linear discriminant analysis and multivariate analysis were performed.
To establish the presence of a species or a contig within a sample, the RPKM of a contig or a species is set to be >2 (a stringent criteria), so as to rule out the false-positive finding) for the contig or the species to be assured as present within a sample. In samples after FMT, if a contig or a species was not present in the recipient baseline sample but present in the corresponding donor baseline sample and in the recipient post-FMT sample, the contig or species was defined as ‘donor-derived’; if a contig or a species was not present in the corresponding donor baseline sample but detected both in the recipient baseline sample and in the recipient post-FMT sample, the contig or the species was defined as ‘recipient-exclusive’, if a contig or a species was present across the recipient baseline sample, the recipient post-FMT sample and the corresponding donor baseline sample, the contig or the species was defined as ‘donor recipient coexisted.’ To determine the abundance alteration of Caudovirales species after FMT, the species' relative abundance (RA) fold change was defined as fc=log 2(post-FMT last follow-up RA/pre-FMT baseline RA).
Approximately 200 mg of stool was suspended in 400 μl saline-magnesium buffer (0.1 M NaCl, 0.008 M MgSO4-7H2O, 0.002% gelatin, 0.05 M Tris pH7.5) by vortexing for 10 min. Stool suspensions were then cleared by centrifugation at 2,000×g to remove debris and cells. Clarified suspensions were passed through one […] followed by two […] filters to remove residual host and bacterial cells. […]

SMILES: CN[C@H](CC(C)C)C(=O)N[C@H]1C(=O)N[C@@H](CC(N)=O)C(=O)N[C@H]2C(=O)N[C@H]3C(=O)N[C@H](C(=O)N[C@H](C(=O)O)c4cc(O)cc(O)c4-c4cc3ccc4O)[C@H](O)c3ccc(c(Cl)c3)Oc3cc2cc(c3O[C@@H]2O[C@H](CO)[C@@H](O)[C@H](O)[C@H]2O[C@H]2C[C@](C)(N)[C@H](O)[C@H](C)O2)Oc2ccc(cc2Cl)[C@H]1O [vancomycin]
- subjects cured of CDI (responders) ([1]; median follow-up of 16 weeks, nine FMT subjects, five vancomycin patients): three of the five
- Recurrence at week ([1]; subject STD1): at week 12
- Outcome (till last follow-up) ([1]; subject STD1, severe CDI, follow-up 20 weeks): Recurrence
- Recurrence at week ([1]; subject STD2): at week 7
- Outcome (till last follow-up) ([1]; subject STD2, moderate CDI, follow-up 7 weeks): Recurrence
- Outcome (till last follow-up) ([1]; subject STD3, severe CDI, follow-up 14 weeks): Cured
- Outcome (till last follow-up) ([1]; subject STD4, severe CDI, follow-up 17 weeks): Cured
- Outcome (till last follow-up) ([1]; subject STD5, moderate CDI, follow-up 26 weeks): Cured
- virome structure over time ([2]; CDI subjects who did not respond to vancomycin): marked oscillation
- virome structure over time ([2]; CDI subjects who responded to vancomycin): not significantly altered
- change in Caudovirales abundance after treatment ([2]; stool of CDI subjects, pre- versus post-treatment): increased
- Caudovirales diversity and richness as well as bacterial diversity and richness over the course of treatment ([2]; subjects who did not respond to vancomycin (STD1 and STD2)): substantial fluctuation
- change in Caudovirales diversity or richness ([2]; subjects who responded to vancomycin (STD3, STD4, STD5)): no significant change
